Test results taken from publication PMC9680484, “Synthesis, Biophysical Interaction of DNA/BSA, Equilibrium and Stopped-Flow Kinetic Studies, and Biological Evaluation of bis(2-Picolyl)amine-Based Nickel(II) Complex” (Biomimetics, 2022).
Values after ≈ are worked out from the molar mass of the structure shown. Values joined by “and” are separate entries in the source; they are usually repeats but may differ in a detail not shown here. Identical values can stand only once.

Tests used:
BSA [1] = molecular target: T1, BSA (Bos taurus, UniProt P02769); experiment: BSA UV-vis absorption titration (Benesi-Hildebrand binding constant); set-up: species or system bovine
Experimental: Interactions between the most common blood protein, serum albumin, and complexes have sparked a lot of interest recently because of their structural similarity to human serum albumin. To better understand the mechanism of interaction between BPA and its nickel(II) complex NiBPA with BSA, fluorescence quenching studies were carried out. BSA’s fluorescence is due to intrinsic protein characteristics, such as the presence of tryptophan and tyrosine residues. Variations in the emission spectra caused by protein conformational changes, subunit interaction, substrate binding, or denaturation are largely attributed to the tryptophan residue. As a result, BSA fluorescence behavior can provide valuable insight into protein structure, dynamics, and folding. Fluorescence titration experiments were performed at room temperature with BSA and different concentrations of BPA and NiBPA in the range 200–600 nm (λex. 280 nm). A slight red shift (40 percent, BPA; 65 percent, NiBPA; Figure 3) reduced the intensity of BSA fluorescence at 343 nm. The presence of the protein’s active site in a hydrophobic environment causes the redshift. […] The quenching mechanism can be set to either static or dynamic operation. […] The binding constants for BPA and NiBPA were calculated using Equation (1) and found to be 0.4 × 10^4 M^−1 and 0.82 × 10^4 M^−1, respectively (Table 1). […]

[2] = MTT cytotoxicity assay, normal cells; assay type: cell-based; conditions: Homo sapiens, WI-38, 24 h
E. faecalis = experiment: Antibacterial MIC/MBC, E. faecalis; assay type: cell-based; conditions: Gram-positive
[3] = test system: human liver cancer (HepG2) cell lines; experiment: MTT cytotoxicity assay, liver cancer cells; assay type: cell-based; conditions: Homo sapiens, HepG2, 24 h
Experimental: Methyl thiazolyl tetrazolium (MTT) colorimetry [47] was used to assess the cytotoxicity of BPA and one for human liver cancer (HepG2) cell lines. MTT can be converted into formazan by living cells with an active metabolism, but this ability is lost in dying cells. Therefore, in this study, the MTT assay was used to determine how many viable cells there were. Before the investigated compounds were added, cells were cultured in 96-well flat-bottomed microtiter plates at a density of 1 × 10^4 cells/well (100 l/well) for 70 to 80 percent confluent cultures, and the cultures were then incubated at 37 °C and 5 percent CO2 for 24 h. The compounds were used in a range of concentrations (31.2, 62.5, 125.0, 250.0, 500.0, and 1000.0 g/mL), and the cells were cultured for 24 h. Then, 10 µl of the 12 mM MTT stock solution (5 mg/mL MTT in sterile PBS) was added to each well at the conclusion of the incubation period. After that, the plate was incubated at 37 °C for 4 h. […] On an ELISA reader, the absorbance at 570 nm was read (StatFax-2100, Awareness Technology, Inc., USA). The percentage of cells inhibited was calculated using: % CellInhibition=100−T−T0/C−T0 where T is the optical density of the test sample, To is the optical density at time zero, and C is the optical density of the control.

S. aureus = experiment: Antibacterial MIC/MBC, S. aureus; assay type: cell-based; conditions: Gram-positive
Experimental: (§1) Several studies have shown that organic compound coordination with a metallic element results in significant changes in the biological activity of both the organic ligand and the metal. As a result, BPA and its nickel complex NiBPA were tested in vitro for antibacterial activity against Gram-positive (S. aureus and S epidermidis) and Gram-negative (P. mirabilis and E. coli) bacteria. Figure 10 depicts the antibacterial function of BPA and NiBPA as the diameter of the growth-inhibition region in millimeters. […] The MBC is identified by determining the lowest concentration of antibacterial agents that reduces the viability of the initial bacterial inoculum by 99.9%. The MIC or MBC strain was chosen based on the value agreed upon on two or more occasions. The antibiotic tobramycin (TOB) was used to control the situation. The inhibition zone, as well as the MIC and MBC data, leads to the following conclusions. […] This is explained by the metal ion’s polarity and cationic charge, as NiBPA has a cationic property with two positive charges. […] The interaction between Gram-negative bacteria and NiBPA was stronger than that of Gram-positive bacteria due to the higher negative charge on the cell surface, despite the presence of an outer membrane in Gram-negative bacteria (see Figure 11).

ct-DNA [4] = experiment: Stopped-flow kinetics of ct-DNA binding
Experimental: (§2) The kinetics of protein and DNA binding was measured using an Applied KinetAsyst SF-61DX2 stopped-flow instrument. At 25 °C, equal volumes of compounds against protein and DNA solutions were rapidly mixed in the stopped-flow instrument. The binding reactions were studied using a 10-fold excess of the ligand BPA and NiBPA under pseudo-first-order conditions. For each experimental condition, all recorded rate constants were taken into account, from which the mean values of at least three independent kinetic runs were calculated.
(§3) Because many medicines with lower cellular toxicity have a slow DNA dissociation rate, several factors, such as the strength of binding and the drug’s affinity for DNA, as well as the kinetic stability of DNA-drug adducts, may contribute to antitumor effectiveness. The stopped-flow technique was used to study in-vitro protein/DNA binding to BPA and propose a mechanism in order to obtain such information. The kinetic traces were recorded at 265 nm within 100 s (BPA) and 5 s (NiBPA), respectively, to capture the interaction process with BSA. […] In the case of ct-DNA interaction, the kinetic traces were recorded at 290 nm, and both BPA and NiBPA followed a similar pattern since kinetic traces for BPA and NiBPA were collected within 100 s, covering the entire interaction process. […] Over the concentration range of BPA and NiBPA, the study of kinetic traces performed under pseudo-first-order conditions may be fitted to two kinetic phases (Figure 7) evaluated using the following Equation (3):(3) A=a1e^−kobs1t1+a2e^−kobs2t2+A0
The interaction process involves at least two steps, and the stopped-flow records the two kinetic phases as a fast binding (rate constant kobs1) followed by a slow first-order isomerization process (rate constant kobs2). […] Both kon and koff were used to calculate the equilibrium association constants Kaff [kon/koff M^−1] and the equilibrium dissociation constants Kd [koff/kon M]. […]

BSA [5] = molecular target: T1, BSA; experiment: BSA fluorescence quenching titration (Stern-Volmer / Scatchard); assay type: binding, bovine; conditions: for KSV: Stern-Volmer constant
Experimental: The excitation and emission wavelengths of BSA at 280 nm were monitored in protein binding studies using BSA ([…]) solution prepared in Tris-HCl buffer (pH 7.5), and the solution was stored in a dark place at 4 °C.
Interactions between the most common blood protein, serum albumin, and complexes have sparked a lot of interest recently because of their structural similarity to human serum albumin. To better understand the mechanism of interaction between BPA and its nickel(II) complex NiBPA with BSA, fluorescence quenching studies were carried out. BSA’s fluorescence is due to intrinsic protein characteristics, such as the presence of tryptophan and tyrosine residues. Variations in the emission spectra caused by protein conformational changes, subunit interaction, substrate binding, or denaturation are largely attributed to the tryptophan residue. As a result, BSA fluorescence behavior can provide valuable insight into protein structure, dynamics, and folding. Fluorescence titration experiments were performed at room temperature with BSA and different concentrations of BPA and NiBPA in the range 200–600 nm (λex. 280 nm). A slight red shift (40 percent, BPA; 65 percent, NiBPA; Figure 3) reduced the intensity of BSA fluorescence at 343 nm. The presence of the protein’s active site in a hydrophobic environment causes the redshift. […] The quenching mechanism can be set to either static or dynamic operation. Dynamic quenching occurs when the fluorophore and the quencher come into contact during the excited state’s transient existence, whereas static quenching is caused by the formation of a complex between the quencher and the fluorophore in the ground state. BSA (fluorophore) has a UV-vis absorption spectrum that can be used to investigate the type of quenching quickly and easily. […] The binding constants for BPA and NiBPA were calculated using Equation (1) and found to be 0.4 × 10^4 M^−1 and 0.82 × 10^4 M^−1, respectively (Table 1). […] Furthermore, the findings are in line with previous research on related compounds.
The Kq value is much higher than the 2 × 10^10 M^−1s^−1 maximum scatters collision quenching constant of quenchers with BSA (Kq = Ksv/τ0), where KSV is the Stern–Volmer constant and τ0 is the average lifetime of the BSA in the absence of the quencher (τ0 = 10 ns). This supports the idea of a static quenching mechanism. […] It is second order in [Q] and thus leads to upward curvy plots of I0/I versus [Q] at higher [Q].
The quenching constant (Kq) was calculated using the Stern–Volmer and Scatchard equation and plotted as I0/I vs. [Q] to better understand the quenching process (Figure 3). In addition, Scatchard Equation (2) was used to calculate the equilibrium binding constant:log[(I0 − I)/I] = log Kbin + n log [Q](2) where Kbin is the compound’s BSA binding constant and n is the number of binding sites. From the log (I0 − I)/I vs. log [Q] plot (Figure 5), the binding constant (Kbin) and the number of binding sites (n) have been calculated (Table 1). The estimated value of n (∼1) for BPA and NiBPA strongly supported the existence of a single binding site in BSA.

E. coli = experiment: Antibacterial MIC/MBC, E. coli; assay type: cell-based; conditions: Gram-negative
Experimental: as §1

P. aeruginosa = experiment: Antibacterial MIC/MBC, P. aeruginosa; assay type: cell-based; conditions: Gram-negative
BSA [6] = molecular target: T1, BSA; experiment: Stopped-flow kinetics of BSA binding; set-up: species or system bovine
Experimental: as §2, §3
The interaction process involves at least two steps, and the stopped-flow records the two kinetic phases as a fast binding (rate constant kobs1) followed by a slow first-order isomerization process (rate constant kobs2). […] Both kon and koff were used to calculate the equilibrium association constants Kaff [kon/koff M^−1] and the equilibrium dissociation constants Kd [koff/kon M].
The difference between the free energy, G, of BSA molecules alone in the solution and when bound together is related to the equilibrium dissociation constant, Kd1. Equation (4) gives the binding free energy change Gbind. (4) ΔGbind=RT·ln(Kd)

ct-DNA [7] = experiment: ct-DNA electronic absorption titration; assay type: binding; conditions: phosphate buffer pH 7.2
Experimental: Electronic absorption measurements were performed with a constant concentration of ctDNA and increasing concentrations of BPA and NiBPA (Na-phosphate buffer solution, pH 7.2). […] Intrinsic fluorescence was measured with the ct-DNA solution at the excitation wavelength (ex, 330), and emission spectra were recorded at 550–700 nm after aliquot addition of BPA and NiBPA.
Absorption titration information was depicted in Figure 6 to understand the mode of interaction of complexes with ct-DNA. Increased addition of a solution of BPA to a solution of ct-DNA causes hyperchromic for the band at 264 nm with a blue shift of 5 nm (259 nm), as shown in the absorption titration spectrum (Figure 6). The band at 278 nm, on the other hand, was hypochromic with a small blue shift of 2 nm (276 nm). The presence of […] in the medium was indicated by the isosbestic point in the titration curve at 274 nm. […] The hydrogen bonds formed with the –OH and SH groups of BPA and NiBPA are caused by the presence of many accessible hydrogen binding sites in the DNA major and minor grooves. The binding constants for BPA (0.16 × 10^5 M^−1) and NiBPA (0.52 × 10^5 M^−1) are similar to those of well-known groove binding rather than classical intercalation, implying that NiBPA interacts with ct-DNA much more strongly than BPA under investigation.

## c1ccc(CNCc2ccccn2)nc1 [BPA, bis(2-picolyl)amine]
BSA [1]
  Kd: 0.25 mM
[2]
  IC50: 237.2 ± 1.3 µg/mL (≈ 1190 µM)
E. faecalis
  MBC: 0 µg/mL
[3]
  IC50: 100 ± 1 µg/mL (≈ 502 µM)
S. aureus
  MBC: 0 µg/mL
ct-DNA [4]; 1st step, 25 °C
  Ka1 (k1/k−1): 40.0 M⁻¹ and 40 M⁻¹
ct-DNA [4]; 1st step, 25 °C, read-out: Kd1 (k−1/k1)
  Kd: 25.6 mM
ct-DNA [4]; 2nd step, 25 °C
  K2 (2nd step): 0.29 ± 0.01 M⁻¹ s⁻¹
  Ka2 (k2/k−2): 47.5 M⁻¹
  k−2: 6.1 ± 0.3 10^−3s^−1
ct-DNA [4]; 25 °C
  k1 (1st step, second-order association constant): 27.0 ± 2.5 M⁻¹ s⁻¹
  k−1 (1st step, first-order dissociation constant): 0.69 ± 0.1 s⁻¹
ct-DNA [4]; overall
  Ka (overall binding): 1899 M⁻¹
BSA [5]; BSA binding constant from Scatchard equation
  Kbin: 0.25 10^4 M^−1
BSA [5]; Scatchard plot log (I0 − I)/I vs. log [Q]
  n (number of binding sites): 1.0
BSA [5]
  KSV: 2100 M⁻¹
BSA [5]; BSA fluorescence, λex 280 nm, room temperature
  KSV: 0.21 10^4 M^−1
BSA [5]; quenching constant, Kq = Ksv/τ0, τ0 = 10 ns
  Kq: 0.21 10^12 M^−1s^−1
BSA [5]; λex 280 nm, room temperature
  reduction of BSA fluorescence intensity at 343 nm: 40%
E. coli
  MBC: 0 µg/mL
P. aeruginosa
  MBC: 0 µg/mL
BSA [6]; BSA, 1st step, 25 °C
  Ka1 (k1/k−1): 73.5 M⁻¹
BSA [6]; BSA, 1st step, 25 °C, read-out: Kd1 (k−1/k1)
  Kd: 13.6 mM
BSA [6]; BSA, 1st step, ΔGbind = RT·ln(Kd)
  ΔG1: -2.53 kcal/mol
BSA [6]; BSA, 2nd step
  K2 (irreversible 2nd step): 0.82 M⁻¹
BSA [6]; BSA, 2nd step, 25 °C, irreversible step for BPA
  K2 (2nd step): Irreversible step with K2 = 0.82 ± 0.08 M^−1s^−1
BSA [6]; BSA, 2nd step, irreversibility
  k−2: ≈ 0
BSA [6]; BSA, 25 °C
  k−1 (1st step, first-order dissociation constant): 0.17 ± 0.0 s⁻¹
BSA [6]; bovine, read-out: k1 (1st step, second-order association constant)
  kon: 12.5 ± 1.1 M⁻¹ s⁻¹
ct-DNA [7]
  binding constant (ct-DNA): 16000 M⁻¹
